Experimental data: US8685982B2, “Thioamide, amidoxime and amidrazone derivatives as HIV attachment inhibitors” (priority 2011, dated 2014)
Read-outs that look alike come from different tables or passages of the source.

Test system: HIV-1 LAI envelope single-round infectious reporter virus
Assay: Single-round infectious HIV-1 LAI luciferase reporter virus infection of MT2 cells
Format: cell-based
Conditions: Human immunodeficiency virus 1, MT2, 72 h
Description: Virus Production • Human embryonic Kidney cell line, 293T (HEK 293T), was propagated in Dulbecco's Modified Eagle Medium (Invitrogen, Carlsbad, Calif.) containing 10% fetal bovine serum (FBS, Sigma, St. Louis, Mo.). The human T-cell leukemia cell MT2 (AIDS Research and Reference Reagent Program, Cat. 237) was propagated in RPMI 1640 (Invitrogen, Carlsbad, Calif.) containing 10% fetal bovine serum (FBS, Hyclone, Logan, Utah)
Virus Infection • Single-round infectious reporter virus was produced by co-transfecting HEK 293T cells with plasmide expressing the HIV-1 LAI envelope along with a plasmid containing an HIV-1 LAI proviral cDNA with the envelope gene replaced by a firefly luciferase reporter gene (Chen et al., Ref 41). Transfections were performed using lipofectAMINE PLUS reagent as described by the manufacturer (Invitrogen, Carlsbad, Calif.). Experimental Procedure • 1. MT2 cells were plated in black, 384 well plates at a cell density of 5×10^3 cells per well in 25 μl RPMI 1640 containing 10% FBS. • 2. Compound (diluted in dimethylsulfoxide and growth medium) was added to cells at 12.5 μl/well, so that the final assay concentration would be ≦50 nM. • 3. 12.5 μl of single-round infectious reporter virus in Dulbecco's Modified Eagle Medium was added to the plated cells and compound at an approximate multiplicity of infection (MOI) of 0.01, resulting in a final volume of 50 μl per well. • 4. Virus-infected cells were incubated at 37 degrees Celsius in a CO2 incubator and harvested 72 h after infection. • 5. Viral infection was monitored by measuring luciferase expression in the infected cells using a luciferase reporter gene assay kit (Steady-Glo, Promega, Madison, Wis.) as described by the manufacturer. Luciferase activity was then quantified by measuring luminescence using an EnVision Multilabel Plate Readers (PerkinElmer, Waltham, Mass.). • 6. The percent inhibition for each compound was calculated by quantifying the level of luciferase expression in cells infected in the presence of each compound as a percentage of that observed for cells infected in the absence of compound and subtracting such a determined value from 100. • 7. An EC50 provides a method for comparing the antiviral potency of the compounds of this disclosure. The effective concentration for fifty percent inhibition (EC50) was calculated with the Microsoft Excel Xlfit curve fitting software. For each compound, curves were generated from percent inhibition calculated at 10 different concentrations by using a four parameter logistic model (model 205). Table 1 is the key for the data in Table 2.

[1] = read-out: EC50 Group from Table 1

| SMILES | EC50 [1] [nM] | EC50 [nM] |
| --- | --- | --- |
| CN(C)c1ccc(C(=S)N2CCN(C(=O)C(=O)c3c[nH]c4cccc(F)c34)CC2)cc1 [Compound 1001] | > 500 | – |
| CON=C(c1ccccc1)N1CCN(C(=O)C(=O)c2c[nH]c3c(-n4cnc(C)n4)ncc(OC)c23)CC1 [Compound 2004, 1-(4-methoxy-7-(3-methyl-1H-1,2,4-triazol-1-yl)-1H-pyrrolo[2,3-c]pyridin-3-yl)-2-(4-((methoxyimino)(phenyl)methyl)piperazin-1-yl)ethane-1,2-dione] | < 500 | 0.019 |
| O=C(C(=O)N1CCN(C(=S)c2ccccc2)CC1)c1c[nH]c2c(-n3ccnn3)ncc(F)c12 [Compound 2001, 1-(4-fluoro-7-(1H-1,2,3-triazol-1-yl)-1H-pyrrolo[2,3-c]pyridin-3-yl)-2-(4-(phenylcarbonothioyl)piperazin-1-yl)ethane-1,2-dione] | < 500 | 0.027 |
| CN(C)N=C(c1ccccc1)N1CCN(C(=O)C(=O)c2c[nH]c3c(-n4ccnn4)ncc(F)c23)CC1 [Compound 1003] | < 500 | – |
| O=C(C(=O)N1CCN(C(=NO)c2ccccc2)CC1)c1c[nH]c2c(-n3ccnn3)ncc(F)c12 [Compound 2005, 1-(4-fluoro-7-(1H-1,2,3-triazol-1-yl)-1H-pyrrolo[2,3-c]pyridin-3-yl)-2-(4-((hydroxyimino)(phenyl)methyl)piperazin-1-yl)ethane-1,2-dione] | < 500 | 0.121 |
| CON=C(c1ccccc1)N1CCN(C(=O)C(=O)c2c[nH]c3c(-n4ccnn4)ncc(F)c23)CC1 [Compound 2002, 1-(4-fluoro-7-(1H-1,2,3-triazol-1-yl)-1H-pyrrolo[2,3-c]pyridin-3-yl)-2-(4-((methoxyimino)(phenyl)methyl)piperazin-1-yl)ethane-1,2-dione] | < 500 | – |
